Results reported in patent US20050020544A1, “Bicyclic CB2 cannabinoid receptor ligands” (priority 2002, published 2005).

What was measured:
[1] = test system: ICR male mice; test: Development of tolerance on repeated administration, tail flick model; details: 10 mg/kg twice daily i.p.
Method: ICR male mice (20-30 g average body weight, Harlan, Israel) were injected i.p. at the volume dose of 5 ml/kg. Each treatment group contained at least 6 animals. Morphine HCl was used as positive control at the final dose of 5 mg/kg. Its vehicle, saline, was also included as control. The test compounds were dissolved in CREMOPHOR EL®:ethanol and diluted 1:20 in saline prior to injection, this second type of vehicle was also included as negative control. The final dose injected varied from 0.1 to 10 mg/kg. At predetermined time points after treatment injection, the animals were placed in the tail flick system (Socrel, model DS 20). Animals were gently held while their tails were located above the photoelectric cell. The tails were then illuminated (21V) at 2 cm from the distal tip and the latency time, measured in seconds, was recorded in duplicates. At the end of the study, the animals were euthanized by i.p. injection of 100 mg/kg sodium pentobarbitone.
Tolerance was assessed in the tail flick model above described. Briefly, the test compounds were administered twice daily i.p. for up to 10 days to groups of 10 animals each. The noxious pain threshold was measured as previously described in example 13 thirty minutes after the first drug administration on days 1, 4, 8 and 10. Results are expressed as mean latency time till the animal flicked its tail±SE. The differences between the latency times or the % of animals showing analgesia among various treatment groups was analyzed by analysis of variance (ANOVA) followed by post-hoc Tukey's test (for latency) or Fisher's exact test (for % animals). A value of p<0.05 is considered to be statistically significant.

[2] = test system: Male ICR mice; test: Rotarod locomotor ability; type: in vivo, mouse; details: 10 mg/kg i.p.
Method: The effect of test compounds on overall locomotor ability was assessed in a second experimental setup, where the animals were submitted to a functional test using the rotarod apparatus as described by Rozas et al. (Rozas G. et al., J. of Neuroscience Methods 83: 165-75, 1998). The animals, male ICR mice (average body weight 40 g, Harlan, Israel), were trained for 4 days before beginning the experiment. Their task was to stay on the accelerating rod without falling for 12 minutes (3 minutes at each speed). The tested speeds were: 15, 19, 23 and 27 rpm. Animal performance on the rod was scored as follows: each animal could obtain a maximum of 3 points (1 for each minute) for full walking on the rod at each speed. Therefore, an animal could get a maximum score of 12 points (3 for each speed). Catching the circling beam of the rod without walking subtracted 0.5 points for every 3 circles circled by the animal. […] After proper training, at least 6 animals per group were administered i.p. with various doses of test compounds and controls, at volume dose of 5 ml/kg. Score was determined in the rotarod apparatus at time zero prior to compound injection and 30 minutes, 3 and 24 hours after compound or vehicle administration.
Results are expressed as mean±SD and the differences between vehicle and treatments are compared by ANOVA, followed by post-hoc Tukey's test. […] This effect disappeared at later time points with average scores of 9.7 and 11.9 at 3 and 24 hours respectively.

[3] = test system: Sprague Dawley male rats; test: Tail flick model, i.v.; type: in vivo, rat; details: for % animals with latency time twice superior to vehicle: ninety minutes
Method: Each treatment group contained at least 6 animals. […] Its vehicle, saline, was also included as control.
Two parameters were used to analyze the results, the latency time and the % of animals showing analgesia. […] The results in both cases are expressed as mean±SE.
Similar studies were performed in Sprague Dawley male rats where the drug was injected i.v. instead of i.p. in the mice model. […] These observations are consistent with the route of administration. In the i.p. study the first time point post-injection was 30 minutes, while it was 10 minutes following i.v. injection thus the onset of action was not thoroughly determined in these experiments. […] At the last time point tested (330 minutes following injection), almost 70% of the animals treated with 4 mg/kg of compound A retained increase resistance to pain.

[4] = test system: Adult female BALB/c mice; type: in vivo, mouse; details: i.p. twice
Method: Adult female BALB/c mice (20 g average body weight, Harlan, Israel) were sensitized on day 0 and day 1 by application of 30 μl of 0.15% Dinitrofluorobenzene (DNFB) diluted in acetone on the shaved skin of the abdomen. On day 6 the animals were challenged by application of 10 μl of DNFB in acetone on one ear. The contralateral ear was not challenged but received the application of 10 μl acetone. Test compounds were administered at increasing doses from 0 to 15 mg/kg i.p. twice, the first injection was immediately after DNFB challenge (on day 6) and the second injection was 16 hours post challenge (on day 7). Each treatment group comprised at least 7 animals. Dexamethasone (DXM) was used as positive control. Ear thickness was determined (in 0.01 mm units) 24 hours after challenge (and 6 hours after second treatment on day 7) using a dial thickness gauge (Mitutoyo, Japan).
Results are analyzed as ear thickness of DNFB treated over DNFB untreated contralateral ear. The impact of the test compound was further assessed by comparing its mean impact on the animals of the treatment group to the response generated by the appropriate vehicle only.

| SMILES | development of tolerance ([1]; 20 administrations) | % of animals showing increased analgesia ([1]; day 10) [%] | latency time ([1]; day 10) [s] | % of animals showing increased analgesia ([1]; day one) [%] | latency time ([1]; day one) [s] | rotarod average score ([2]; 3 hours) | rotarod average score ([2]; 24 hours) | rotarod average score ([2]; thirty minutes, maximal score 12) | % animals with latency time twice superior to vehicle ([3]; 3 mg/kg i.v.) [%] | % animals with increased resistance to pain ([3]; 4 mg/kg i.v., 330 minutes) [%] | % animals with latency time twice superior to vehicle ([3]; 4 mg/kg i.v.) [%] | calculated IC50 reduction in ear thickness [4] [mg/kg] | maximal inhibition (reduction in ear thickness) ([4]; doses 0 to 15 mg/kg, 24 hours after challenge) [%] |
| --- | --- | --- | --- | --- | --- | --- | --- | --- | --- | --- | --- | --- | --- |
| CCCCCCC(C)(C)c1cc(O)c(C2CC(=O)C3CC2C3(C)C)c(O)c1 (single isomer, unassigned; (-)) [Compound A, (−)-4-[4-(1,1-Dimethyl-heptyl)2,6-dihydroxy-phenyl]-6,6-dimethyl-bicyclo[3.1.1)heptan-2-one] | did not cause the development of tolerance | 80 | 7 | 88 | 8.1 | 9.7 | 11.9 | 5.6 | 100 | ~70 | 100 | – | – |
| CCCCCCC(C)(C)c1cc(OC)c(C2C=C(CO)C3CC2C3(C)C)c(OC)c1 (single isomer, unassigned; (+)) [HU-308, (+) {4-[4-(1,1-dimethylheptyl)-2,6-dimethoxy-phenyl]-6,6-dimethyl-bicyclo[3.1.1]hept-2-en-2-yl}-methanol, reference compound] | – | – | – | – | – | – | – | – | – | – | – | 4.8 | ~60 |
